Eleven compounds from patent US8664238B2, “Indenoisoquinolinone derivatives, manufacturing method and medical use thereof” (China Pharmaceutical University, priority 2009, dated 2014) can be followed below.

One test has as its system Human breast cancer cells MCF-7. As to the kind of experiment: Proliferation of MCF-7 breast cancer cells (MTT detection method). The conditions noted are these: MCF-7 cells, 48 h incubation with drug, read-out: IC50, inhibition on the proliferation of MCF-7 breast cancer cells. In kind it is cell-based. The protocol: The method described in Journal of Medicinal Chemistry. 1997. 40. 1407-1416 has been used and slightly modified. Human breast cancer cells MCF-7, purchased from Nanjing Keygen Biotechnology Inc. MCF-7 cells were incubated in RPMI1640 medium (containing 10% calf serum, 100 U/ml of penicillin and 100 μg/ml of streptomycin) in a 37° C. incubator with 5% CO2. The medium was replaced once about two days and cells were subcultured once every 3-4 days. In the subculturing, the old medium was discarded and the culture was washed twice with D-hanks (for washing off the phenol red in the medium to eliminate the influence of phenol red on the digestion effect of trypsin). Then, a small amount of 0.25% trypsin (25 mg trypsin, 100 ml D-hanks) was added and the contents were paved in the bottle bottom smoothly. […] Trypsin was discarded and the cells were washed with D-hanks, then fresh medium was added and mixed by blowing. The cultures were put into new culture flasks and cultured continuously. After cell count, a small volume of cell suspension was taken and mixed with 0.4% trypan blue in the same volume by blowing with a straw. A little mixture (15 μl-20 μl) was taken and dropped into the interspace between the counting plate and the coverslip without bubbles. […] Dead cells can be stained by trypan blue, while living cells cannot. The counting plate was moved so as to see the counting squares, then unstained cells in four diagonal grids were counted. The cells counted include those on the right line and the top line but not those on the bottom line and the left line. The number of cells/ml=the number of cells in 25% grid×10^4. […] The control group was that in which the anticancer drug was replaced with the same volume of medium and the blank group is 200 μl medium. After incubating for 48 h, 5 mg/ml MTT was added in 20 μl per well and the cultures were further incubated for 4 h. Then, the liquid was suck out carefully and 150 μl of DMSO was added per well. OD values of all wells were measured in 570 nm and the inhibition rate on the cell proliferation and values of IC50 were calculated.
Consider `CC(C)N(CCOc1ccc(-n2c3c(c4ccccc4c2=O)C(=O)c2ccccc2-3)cc1)C(C)C` [Ik, 6-(4-(2-diisopropylaminoethoxy)phenyl)-5H-indeno[1,2-c]isoquinoline-5,11(6H)-diketone], for which the IC50 was 79.9 µM.
Turning to `O=C1c2ccccc2-c2c1c1ccccc1c(=O)n2-c1ccc(OCCCN2CCCCC2)cc1` [Ib, 6-(4-(3-piperidinylpropoxy)phenyl)-5H-indeno[1,2-c]isoquinoline-5,11(6H)-diketone], the IC50 is 10.9 µM.
Same read-out and setting: then `CN1CCN(CCOc2ccc(-n3c4c(c5ccccc5c3=O)C(=O)c3ccccc3-4)cc2)CC1` [Ig, 6-(4-(2-(4-methylpiperazinyl)ethoxy)phenyl)-5H-indeno[1,2-c]isoquinoline-5,11(6H)-diketone], with 5.82 µM.
On the same count and under the same terms, next, `O=C1c2ccccc2-c2c1c1ccccc1c(=O)n2-c1ccc(OCCN2CCCCC2)cc1` [Ia, 6-(4-(2-piperidinylethoxy)phenyl)-5H-indeno[1,2-c]isoquinoline-5,11(6H)-diketone]: 9.55 µM; `O=C1c2ccccc2-c2c1c1ccccc1c(=O)n2-c1ccc(OCCCN2CCCC2)cc1` [Ij, 6-(4-(3-pyrrolidinylpropoxy)phenyl)-5H-indeno[1,2-c]isoquinoline-5,11(6H)-diketone]: 24.7 µM.
On the same count and under the same terms, next, `CN(C)CCCOc1ccc(-n2c3c(c4ccccc4c2=O)C(=O)c2ccccc2-3)cc1` [Id, 6-(4-(3-dimethylaminopropoxy)phenyl)-5H-indeno[1,2-c]isoquinoline-5,11(6H)-diketone]: 27.9 µM; `CN1CCN(CCCOc2ccc(-n3c4c(c5ccccc5c3=O)C(=O)c3ccccc3-4)cc2)CC1` [Ih, 6-(4-(3-(4-methylpiperazinyl)propoxy)phenyl)-5H-indeno[1,2-c]isoquinoline-5,11(6H)-diketone]: 5.89 µM.
In the case of `O=C1c2ccccc2-c2c1c1ccccc1c(=O)n2-c1ccc(OCCN2CCCC2)cc1` [Ii, 6-(4-(2-pyrrolidinylethoxy)phenyl)-5H-indeno[1,2-c]isoquinoline-5,11(6H)-diketone], the IC50 came out at 11.3 µM.
Still for that read-out and setting: next, `CCN(CC)CCOc1ccc(-n2c3c(c4ccccc4c2=O)C(=O)c2ccccc2-3)cc1` [Ie, 6-(4-(2-diethylaminoethoxy)phenyl)-5H-indeno[1,2-c]isoquinoline-5,11(6H)-diketone]: 7.8 µM; `CCN(CC)CCCOc1ccc(-n2c3c(c4ccccc4c2=O)C(=O)c2ccccc2-3)cc1` [If, 6-(4-(3-diethylaminopropoxy)phenyl)-5H-indeno[1,2-c]isoquinoline-5,11(6H)-diketone]: 8.52 µM.
The same measure, in the same setting: next, `CN(C)CCOc1ccc(-n2c3c(c4ccccc4c2=O)C(=O)c2ccccc2-3)cc1` [Ic, 6-(4-(2-dimethylaminoethoxy)phenyl)-5H-indeno[1,2-c]isoquinoline-5,11(6H)-diketone]: 2.13 µM.

In a further test the test system is H460 human lung cancer cells. Put plainly: Proliferation experiment of H460 human lung cancer cells. In kind it is cell-based.
Conditions: not given
How it is done: Meanwhile, the proliferation experiment of H460 human lung cancer cells was also conducted.
As for `CCN(CC)CCCOc1ccc(-n2c3c(c4ccccc4c2=O)C(=O)c2ccccc2-3)cc1` [If, 6-(4-(3-diethylaminopropoxy)phenyl)-5H-indeno[1,2-c]isoquinoline-5,11(6H)-diketone], the IC50 came to 0.63 µM.
